Laboratory results published in ChEMBL document CHEMBL3507680, “University of Dundee, Gates Library screen for HepG2 cell viability”.

Assay: Human HepG2 cell viability assay in 384 well format
Type: toxicity, cell-based
Design: dose 125 nL, time 70.5 hour; concentration not given beside the values
Conditions: HepG2 cells, read-out: Inhibition

Structure (SMILES)	cytotoxicity at 70.5 h [%]
C[C@@H]1C[C@H]2CN(S(=O)(=O)c3ccc(F)cc3)C[C@H]2O1	-4.41
Cn1cccc1C(=O)N1C[C@H]2CN(Cc3cccnc3)C[C@H]2C1	-1.49
COc1ccc(C[C@H]2CNCC[C@@H]2OCC2CC2)cc1	-8.25
CN1C(=O)C2(CCN(C(=O)C3CCOCC3)CC2)c2ccccc21	-3.31
O=C(CCc1ccccc1)N[C@H]1CC[C@@]2(CCC(=O)N2)CC1	-8.44
COc1ccc(C[C@H]2CN(C(=O)c3cc(C)no3)CC[C@H]2OC)cc1	-5.12
Cc1ccc(CN2CCC3(CCCN3C(=O)C(C)C)CC2)o1	5
O=C(C1CCC1)N1C[C@@H]2CN(c3ccccc3)C(=O)[C@@H]2C1	11
CO[C@H]1CCN(C(=O)c2cc(C)on2)C[C@@H]1Cc1ccccc1	5.73
CN(C)CC(=O)N1CC2(CCN(S(=O)(=O)c3ccccc3)C2)C1	-6.71
NCC1[C@H]2CN(Cc3cccc(Cl)c3)C[C@@H]12 (some centres not stated)	-5.77
CCS(=O)(=O)N1CCC2(CC(=O)N(c3ccccc3C)C2)C1 (configuration not stated)	21.9
Cc1oncc1C(=O)N1CCC2(CC1)CN(S(C)(=O)=O)c1ccccc12	-3.56
COc1ccc(CN2C[C@@H]3CN(C(=O)[C@H]4CCCO4)C[C@@H]3C2=O)cc1	-4.12
CN(C)CC(=O)N1CCC2(CCN(Cc3cccc(F)c3)CC2)C1	-8.05
O=C(NCCc1ccccn1)[C@@]12CCO[C@@H]1CCN(c1ncccn1)C2	-2.15
COc1ccc(C[C@H]2CN(C(=O)C3CC3)CC[C@H]2OC)cc1	21.5
CCN1C(=O)CCC12CCCN(CCc1ccccc1)C2 (configuration not stated)	34.9
CN(C)CC(=O)N1CCC2(CC1)CN(Cc1ccccc1)C2	30.2
CS(=O)(=O)N1CCN(c2ccc3ccc(C(=O)NC4CC4)cn23)CC1	0.444
COCCN1CCN(c2ccc3ccc(C(=O)NC4CC4)cn23)CC1	-2.48

Structure (SMILES)	cytotoxicity at 70.5 h [%]
O=C(c1ccco1)N1CCC2(CCC(=O)N2Cc2ccncc2)CC1	-2.64
CCN1C[C@@H]2[C@@H](OC)CCN(C(=O)Cc3ccsc3)[C@@H]2C1	-5.4
Cc1ccc(CN2CCC3(CC2)C(=O)Nc2ccccc23)s1	-7.74
CN1C(=O)CC(c2ccccc2)C12CCN(CC1CCOCC1)CC2 (configuration not stated)	-6.6
CN(C)C(=O)CC1CC2(CCN(CC3CC3)CC2)Oc2ccccc21 (configuration not stated)	-3.69
O=C1Nc2ccccc2C12CCN(c1nccs1)CC2	-3.17
O=C1CC[C@]2(CC[C@@H](NC(=O)NCc3cccnc3)CC2)N1	-2.72
Cc1ccc(CN2CC[C@H]3NC(=O)CC[C@@H]32)o1	-6.53
COCCN1C[C@@H]2[C@@H](OC)CCN(C(=O)Cc3ccsc3)[C@@H]2C1	-8.01
O=C(Cc1ccccc1)N1CCC2(CCN2Cc2ccc(F)cc2)C1 (configuration not stated)	7.36
COCCN1CCC2(CC1)CC(NC(=O)CC1CC1)c1ccccc1O2 (configuration not stated)	-6.99
O=C1N(Cc2cccc(F)c2)CCC12CCN(c1ccccn1)CC2	-8.45
COCC(=O)NC1CC2(CCN(CC3CC3)CC2)Oc2ccccc21 (configuration not stated)	18.1
CN1C(=O)CC[C@]12CC[C@@H](NCc1ccsc1)CC2	-5.76
CN(C)CCN1C(=O)CCC12CCCN(C(=O)C1CC=CC1)CC2 (configuration not stated)	-1.28
COCC(=O)N1CCC2(CCN(Cc3cccnc3)C2)CC1	-7.11
COCCN1CCC2(CC1)CCN(Cc1ccccn1)CC2	-1.25
O=C1CC[C@]2(CC[C@@H](NCc3cccnc3)CC2)N1Cc1ccccc1	-11.6
O=C(c1n[nH]c2c1CN(C1CCOC1)CC2)N1CCOCC1 (configuration not stated)	-2.91
CCCN1CCC[C@]2(CCC(=O)N2Cc2ccncc2)[C@H]1CC	-4.44
O=C1C[C@@H]2[C@H](CCN2Cc2ccccn2)N1Cc1ccncc1	-4.28
